{"source": "patent US9549942B2", "about": "“Composition for preventing or treating degenerative brain diseases including compound downregulating expression of BACE1 proteins” (RESEARCH & BUSINESS FOUNDATION SUNGKYUNKWAN UNIVERSITY, priority 2013, dated 2017)", "key": {"[1]": {"test_system": "BACE1 mRNA", "experiment": "BACE1 mRNA under oxidative stress (HNE) conditions of brain nerve cells (real-time PCR)", "type": "cell-based, human", "conditions": "SH-SY5Y cells pretreated 24 hours at 1, 5 and 10 μM, then HNE", "method": "In order to determine an influence of chlorhexidine and thioguanosine of the present disclosure on an amount of BACE1 expression under oxidative stress conditions of brain nerve cells, the following experiment was performed.\nBrain nerve cells, SH-SY5Y cells, were pretreated with chlorhexidine and thioguanosine at 1 μM, 5 μM, and 10 μM for 24 hours. Then, an oxidative stress substance HNE (4-hydroxynonenal) was applied to the SH-SY5Y cells, and a change in the amount of BACE1 proteins was determined by Western blot. A change in an amount of BACE1 mRNA was determined by real-time PCR.\nIn this regard, in FIGS. 9 and 10, asterisks (**) indicate a significant (p≦0.01) increase of BACE1 mRNA expression relative to control. Similarly, number signs (##) indicate a significant (p≦0.01) decrease, and number signs (###) indicate a significant (p≦0.001) decrease in BACE1 mRNA expression relative to oxidative stress conditions."}, "[2]": {"test_system": "APP CTFs (C83 and C99)", "experiment": "Generation of APP CTFs (C83 and C99) under oxidative stress conditions of brain nerve cells (Western blot)", "type": "cell-based, human", "conditions": "SH-SY5Y cells pretreated 24 hours at 5 and 10 μM, then HNE", "method": "In order to determine an influence of chlorhexidine and thioguanosine of the present disclosure on APP CTFs under oxidative stress conditions of brain nerve cells, the following experiment was performed. Brain nerve cells, SH-SY5Y cells, were pretreated with chlorhexidine and thioguanosine at 5 μM and 10 μM for 24 hours. Then, an oxidative stress substance HNE (4-hydroxynonenal) was used as the treatment, and the generation of APP CTFs (C83 and C99) was determined by Western blot. Under oxidative stress conditions of brain nerve cells treated in accordance with the present disclosure, changes in the generation of APP CTFs are shown in FIGS. 11 and 12."}, "[3]": {"test_system": "BACE1 mRNA", "experiment": "BACE1 mRNA in brain of Alzheimer's dementia animal model (real-time PCR)", "type": "in vivo", "conditions": "3×Tg-AD mouse, 25 mg/kg orally every day for 4 weeks", "method": "(§1) As an Alzheimer's dementia animal model, 3×Tg-AD mice were used. The 3×Tg-AD mouse is a mouse having overexpressed presenilin, amyloid precursor protein (APP), and Tau genes, which are frequently found in Alzheimer's dementia. The 3×Tg-AD mouse is an animal model that is widely used for research on Alzheimer's dementia (Oddo S. et al, 2003, Neuron, 39, 409-421). 25 mg/kg of chlorhexidine was orally administered every day for 4 weeks; and 0.1 mg/kg and 0.5 mg/kg of thioguanosine were orally administered every day for 8 weeks to 6-month old 3×Tg-AD mice. A Morris water maze test was used to evaluate the effects of chlorhexidine and thioguanosine administration on the mice.\nFrom the 3×Tg-AD mouse to which chlorhexidine was administered in Example 4a brain was extracted. The extracted brain was lysed using a tissue lysis buffer and RNA was extracted using Trizol. The amount of BACE1 expression was determined by Western blot and real-time PCR. FIGS. 18 and 19 show the results."}, "[4]": {"test_system": "Aβ40 and Aβ42", "experiment": "Generation of Aβ40 and Aβ42 in brain, human amyloid β assay kits (ELISA)", "type": "in vivo", "conditions": "3×Tg-AD mouse brain, 25 mg/kg orally every day for 4 weeks", "method": "as §1\nFrom the 3×Tg-AD mouse to which chlorhexidine was administered in Example 4a brain was extracted. A […] frozen section was prepared from the extracted brain using a microtome. Then, generation of Aβ was measured using immuno staining or a human amyloid 13 (1-40) assay kit (IBL) and a human amyloid β (1-42) assay kit (IBL). FIGS. 20 and 21 show the results."}}, "data": [{"smiles": "[H]/N=C(\\N/C(=N/[H])NCCCCCCNC(=N)NC(=N)Nc1ccc(Cl)cc1)Nc1ccc(Cl)cc1", "note": "[chlorhexidine, N′,N′″″-hexane-1,6-diylbis[N-(4-chlorophenyl)(imidodicarbonimidic diamide)]]", "values": [{"measurement": "increase in the amount of BACE1 mRNA due to oxidative stress", "setting": "[1]", "value": "decreased at 1 μM and at 5 μM"}, {"measurement": "increase in CTFs due to oxidative stress", "setting": "[2]", "value": "decreased at 5 μM and 10 μM"}, {"measurement": "amount of BACE1 mRNA in brain", "setting": "[3]", "value": "lower amount of BACE1 mRNA than that of the control group"}, {"measurement": "generation of Aβ40", "setting": "[4]", "value": "decreased"}, {"measurement": "generation of Aβ42", "setting": "[4]", "value": "decreased"}]}]}
